Measurements as given in paper PMC7369893, “Antimicrobial Peptides Display Strong Synergy with Vancomycin Against Vancomycin-Resistant E. faecium, S. aureus, and Wild-Type E. coli” (International Journal of Molecular Sciences, 2020).
≈ marks a conversion by molar mass, not a printed value. Read-outs that look alike come from different tables or passages of the source.

Tests used:
[1] = test system: Vancomycin-intermediate S. aureus 02 (VISA02); test: microbe, parasite or virus in culture; format: cell-based, Staphylococcus aureus; settings: Staphylococcus aureus, 16 h
Experimental: (§1) The antibacterial activities of peptides were determined by the standard broth microdilution method according to the guidelines of the Clinical and Laboratory Standards Institute (CLSI). Briefly, E. coli ATCC 25922 were incubated in MHB, and E. faecium BCRC 15B0132, VISA and VRSA strains were incubated in TSB overnight at 37 °C. The cell cultures were regrown to the mid-log phase and subsequently diluted to a final concentration of 5 × 10^5 CFU/mL. The 1 µL peptides or antibiotic were loaded into each well at the final concentration of 64, 32, 16, 8, 4, 2, 1, and 0.5 µg/mL, then loaded 99 µL diluted microbes into each well of polypropylene 96-well plate. After 16 h of incubation at 37 °C, the turbidity at OD600 was measured by the microplate reader. The minimal inhibitory concentration (MIC) value was defined as the lowest concentration of peptide or antibiotic, which inhibited the 90% visible growth of bacteria. All experiments were repeated three times independently.

[2] = test system: Vancomycin-intermediate S. aureus 03 (VISA03); test: microbe, parasite or virus in culture; format: cell-based, Staphylococcus aureus; settings: Staphylococcus aureus, 16 h
Experimental: as §1

[3] = test system: Vancomycin-intermediate S. aureus 01 (VISA01); test: microbe, parasite or virus in culture; format: cell-based, Staphylococcus aureus; settings: Staphylococcus aureus, 16 h
Experimental: as §1

[4] = test system: VRE, VISA, VRSA, and E. coli strains; test: microbe, parasite or virus in culture; format: cell-based; settings: Staphylococcus aureus
Experimental: as §1

[5] = test system: Vancomycin-resistant S. aureus 03 (VRSA03); test: microbe, parasite or virus in culture; format: cell-based, Staphylococcus aureus; settings: Staphylococcus aureus, 16 h
Experimental: (§2) For the purpose of inducing vancomycin-resistant Staphylococcus aureus (VRSA), the VISA01, VISA02, and VISA03 bacteria were incubated overnight in culture medium, and transferring 50 µL of bacteria to 5 mL of fresh medium containing 2 μg/mL of vancomycin then incubated overnight. The bacteria were transferred to new tube with doubling vancomycin concentration and then incubated overnight again. The concentration of vancomycin during serial passage was 2, 4, 8, 16, and 32 µg/mL. The procedure was repeated until meeting the final concentration of 32 µg/mL. After serial passage, the cell resistance was confirmed by using an MIC assay.
as §1

[6] = test system: Vancomycin-resistant S. aureus 02 (VRSA02); test: microbe, parasite or virus in culture; format: cell-based, Staphylococcus aureus; settings: Staphylococcus aureus, 16 h
Experimental: as §2, §1

[7] = test system: Vancomycin-resistant S. aureus 01 (VRSA01); test: microbe, parasite or virus in culture; format: cell-based, Staphylococcus aureus; settings: Staphylococcus aureus, 16 h
Experimental: as §2, §1

[8] = test system: E. faecium BCRC 15B0132 (VRE); test: microbe, parasite or virus in culture; format: cell-based, Enterococcus faecium; settings: 16 h
Experimental: as §1

[9] = test system: E. faecium BCRC 15B0132 (VRE); test: Time killing assay; format: cell-based, Enterococcus faecium; settings: 5 × 10^5 CFU/mL, 1 × MIC, 0.5-24 h, 37 °C, triplicate
Experimental: (§3) The bactericidal activities of vancomycin, P-113, Phe-P-113, Bip-P-113, Dip-P-113, and Nal-P-113 against E. faecium BCRC 15B0132 (VRE) and E. coli ATCC 25922 were assessed by the time-kill analysis. The cells were grown overnight in TSB or MHB at 37 °C with shaking, and then fresh TSB or MHB was inoculated for growth to mid-logarithmic phase. Bacteria (5 × 10^5 CFU/mL) were treated with 1 × MIC vancomycin, P-113, Phe-P-113, Bip-P-113, Dip-P-113, and Nal-P-113 for 0.5, 1, 2, 4, 6, 10, and 24 h at 37 °C. Bacteria without peptides and vancomycin served as a control. Aliquots were removed at each time points, and 10-fold serial dilutions of the aliquot were plated onto the Müller-Hinton agar. The numbers of CFU were counted after 24 h of incubation at 37 °C. The detection limit for the colony counts was 2log10 CFU/mL.

E. coli ATCC 25922 [10] = test: Time killing assay; format: cell-based, Escherichia coli; settings: E. coli ATCC 25922, 5 × 10^5 CFU/mL, 1 × MIC, 0.5-24 h, 37 °C; triplicate
Experimental: as §3

E. coli ATCC 25922 [11] = test: microbe, parasite or virus in culture; format: cell-based, Escherichia coli
Experimental: as §1

`CN[C@H](CC(C)C)C(=O)N[C@H]1C(=O)N[C@@H](CC(N)=O)C(=O)N[C@H]2C(=O)N[C@H]3C(=O)N[C@H](C(=O)N[C@H](C(=O)O)c4cc(O)cc(O)c4-c4cc3ccc4O)[C@H](O)c3ccc(c(Cl)c3)Oc3cc2cc(c3O[C@@H]2O[C@H](CO)[C@@H](O)[C@H](O)[C@H]2O[C@H]2C[C@](C)(N)[C@H](O)[C@H](C)O2)Oc2ccc(cc2Cl)[C@H]1O` [Vancomycin] showed an MIC [1] of 4 µg/mL (≈ 2.76 µM), an MIC [2] of 4 µg/mL (≈ 2.76 µM) and an MIC [3] of 4 µg/mL (≈ 2.76 µM). The MIC ([4]; read-out: MIC against VISA strains) was 4 µg/mL (≈ 2.76 µM), the MIC ([4]; read-out: MIC against VRSA strains) was 32 µg/mL (≈ 22.1 µM) and the MIC [5] was 32 µg/mL (≈ 22.1 µM). For the same compound, the MIC [6] was 32 µg/mL (≈ 22.1 µM), the MIC [7] was 32 µg/mL (≈ 22.1 µM) and the MIC ([8]; E. faecium BCRC 15B0132 (VRE), CLSI broth microdilution, TSB, 5 × 10^5 CFU/mL, 37 °C, OD600, 90% growth inhibition, triplicate) was 64 µg/mL (≈ 44.2 µM). For the same compound, the MIC ([8]; Enterococcus faecium, VRE) was 64 µg/mL (≈ 44.2 µM), the killing kinetics [9] was “slower or limited killing kinetics” and the killing kinetics (E. coli ATCC 25922 [10]) was “limited bactericidal activity”. The MIC (E. coli ATCC 25922 [11]; E. coli ATCC 25922, CLSI broth microdilution, MHB, 5 × 10^5 CFU/mL, 16 h, 37 °C, OD600, 90% growth inhibition, triplicate) was over 64 µg/mL and the MIC (E. coli ATCC 25922 [11]; Escherichia coli, ATCC25922, 16 h) was over 64 µg/mL.
